Test results: publication PMC4516313 (Journal of Medicinal Chemistry, 2015)
Read-outs that look alike come from different tables or passages of the source.

Assays:
rhesus monkeys [1] = conditions: cited from earlier work
squirrel monkeys = conditions: cited from earlier work
rhesus monkeys [2] = conditions: cited from earlier work; remark: listed apart in the source
rats [3] = conditions: cited from earlier work
humans = conditions: cited from earlier work
D3R [4] = conditions: primates, PET, oral 1.0 mg/kg; cited from earlier work
monkeys [5] = conditions: cited from earlier work
monkeys [6] = conditions: 5 day treatment; cited from earlier work
cocaine abusers = conditions: cited from earlier work
monkeys [7] = conditions: monkeys trained to discriminate cocaine, preliminary unpublished results
rats [8] = conditions: unpublished results
rhesus monkeys [9] = conditions: 5 day treatment, 3.0 mg/kg i.v., two of three monkeys
[10] = tested on: 64 radioligand/enzyme assays; conditions: 10 μM; e.g. α1 adrenergic, α2 adrenergic, histamine H1, sodium channel site 2, CCK1, NK2
rats [11] = tested on: rats
[12] = tested on: overweight and obese subjects; conditions: cited from earlier work
abstinent smokers = conditions: cited from earlier work
tobacco smokers = conditions: smokers after overnight abstinence; cited from earlier work
D3R [13] = conditions: cited from earlier work
rats [14] = conditions: cited from earlier work; remark: listed apart in the source
rats [15] = conditions: cited from earlier work; remark: listed apart in the source
[16] = history of long access (6 h per day, 6 days per week)
[17] = history of short access (1 h per day, 3 days per week)

O=C(NCCCCN1CCN(c2cccc(Cl)c2Cl)CC1)c1ccc(-c2ccccn2)cc1 [Compound 17, N-(4-(4-(2,3-dichlorophenyl)piperazin-1-yl)butyl)-4-(pyridin-2-yl)benzamide]
cocaine- and food-maintained responding (rhesus monkeys [1]; monkeys, second-order schedule of reinforcement): decreased both cocaine- and food-maintained responding
cocaine's discriminative stimulus effects (rhesus monkeys [1]; rhesus monkeys): attenuated cocaine’s discriminative stimulus effects
cocaine self-administration and cocaine-induced reinstatement (squirrel monkeys): failed to attenuate cocaine self-administration or cocaine-induced reinstatement
yawning (rhesus monkeys [2]; cocaine-naïve rhesus monkeys): failed to do so
yawning (rhesus monkeys [2]; monkeys with a history of cocaine self-administration): induced yawning similar in magnitude to quinpirole
PR METH self-administration (rats [3]; [16]): reduced PR METH self-administration
PR METH self-administration (rats [3]; [17]): also reduced PR METH self-administration

COc1ccccc1N1CCN(CCCCNC(=O)c2ccc3ccccc3c2)CC1 [Compound 8]
outcome of clinical trials for cocaine abuse (humans): failed in clinical trials for cocaine abuse

O=C1CC2(CCCC2)CC(=O)N1CCCCN1CCN(c2ncccn2)CC1 [buspirone]
D3R occupancy (D3R [4]): < 20%
cocaine-maintained vs food-reinforced behavior (monkeys [5]; monkeys self-administering cocaine): decreased cocaine-maintained behavior to a larger degree than food-reinforced behavior
cocaine self-administration vs food-reinforced responding (monkeys [5]; rhesus monkeys, continuous infusions): decreased cocaine self-administration to a greater degree than food-reinforced responding
cocaine choice (monkeys [6]): increased cocaine choice
cocaine use (cocaine abusers; 60 mg): increased cocaine use in women
treatment-emergent adverse events (cocaine abusers): did not include increases in blood pressure

O=C(NCCC(O)CN1CCN(c2cccc(Cl)c2Cl)CC1)c1cc2ccccc2[nH]1 (racemic) [(±)-1, N-(4-(4-(2,3-dichlorophenyl)piperazin-1-yl)-3-hydroxybutyl)-1H-indole-2-carboxamide]
substitution for cocaine (monkeys [7]): does not substitute for cocaine
effect on 7-OH DPAT-induced yawning (rats [8]): attenuated 7-OH DPAT-induced yawning in rats
effect on METH choice curve (rhesus monkeys [9]): produced a leftward shift of the METH choice curve
cocaine choice, group data, posthoc comparison (cynomolgus monkeys; 0.01 mg/kg cocaine available as the alternative to food): significant increase in cocaine choice
effect on cocaine choice curve (cynomolgus monkeys; seven cynomolgus monkeys, acute i.v., in all but one monkey): either shifted the cocaine choice curve to the left (4 subjects) or had no effect (2 subjects)
hits in the receptor panel [10]: only “hit” a few
Dunnett's test p vs vehicle, PR break points normalized to baseline (rats [11]; 3.0 mg/kg i.p.): > 0.05
Dunnett's test p vs vehicle, number of METH injections (rats [11]; 3.0 mg/kg i.p.): > 0.05
Dunnett's test p vs vehicle, PR break points normalized to baseline (rats [11]; 10 mg/kg i.p.): < 0.001
Dunnett's test p vs vehicle, number of METH injections (rats [11]; 10 mg/kg i.p.): < 0.001
effect on PR break points normalized to baseline responding (rats [11]; i.p., 3.0 and 10 mg/kg): significantly reduced PR break points
effect on number of METH injections (PR) (rats [11]; i.p., 3.0 and 10 mg/kg): significantly and dose-dependently reduced METH injections

CCCN1CCC[C@@H]2Cc3n[nH]cc3C[C@H]21 [quinpirole, reference compound]
yawning (rhesus monkeys [2]; cocaine-naïve rhesus monkeys): induces robust yawning

Cc1ncoc1-c1nnc(SCCCN2C[C@@H]3C[C@]3(c3ccc(C(F)(F)F)cc3F)C2)n1C [Compound 7]
approach bias [12]: reduced approach bias
attentional bias to palatable food cues [12]: reduced
attentional bias, Stroop Task (abstinent smokers): partially attenuated an attentional bias
craving (tobacco smokers): transiently alleviated craving

O=C(NCC[C@H](O)CN1CCN(c2cccc(Cl)c2Cl)CC1)c1cc2ccccc2[nH]1 [(S)-1]
effect on 7-OH DPAT-induced yawning (rats [8]): attenuated 7-OH DPAT-induced yawning in rats
Dunnett's test p vs vehicle, PR break points normalized to baseline (rats [11]; 3.0 mg/kg i.p.): < 0.01
Dunnett's test p vs vehicle, number of METH injections (rats [11]; 3.0 mg/kg i.p.): > 0.05
Dunnett's test p vs vehicle, PR break points normalized to baseline (rats [11]; 10 mg/kg i.p.): < 0.001
Dunnett's test p vs vehicle, number of METH injections (rats [11]; 10 mg/kg i.p.): < 0.001

CN(C)C(=O)N[C@H]1CC[C@H](CCN2CCN(c3cccc(Cl)c3Cl)CC2)CC1 [Compound 6, cariprazine]
D3R-preferential (D3R [13]): approximately 10 fold

O=C(NC/C=C/CN1CCN(c2cccc(Cl)c2Cl)CC1)c1ccc(-c2ccccn2)cc1 [Compound 3]
PR METH self-administration (rats [3]; [16]): reduced PR METH self-administration
PR METH self-administration (rats [3]; [17]): in contrast to 3

O=C(NCCCCN1CCN(c2cccc(Cl)c2Cl)CC1)c1ccc2c(c1)Cc1ccccc1-2 [Compound 2, N-(4-(4-(2,3-dichlorophenyl)piperazin-1-yl)butyl)-9H-fluorene-2-carboxamide]
break point, cocaine PR schedule (rats [14]): significantly lowered the break point
cue- and cocaine-induced reinstatement of cocaine seeking (rats [15]): blocked both cue- and cocaine-induced reinstatement of cocaine seeking

O=C(NCC[C@@H](O)CN1CCN(c2cccc(Cl)c2Cl)CC1)c1cc2ccccc2[nH]1 [(R)-1]
Dunnett's test p vs vehicle, PR break points normalized to baseline (rats [11]; 3.0 mg/kg i.p.): < 0.001
Dunnett's test p vs vehicle, number of METH injections (rats [11]; 3.0 mg/kg i.p.): < 0.01
Dunnett's test p vs vehicle, PR break points normalized to baseline (rats [11]; 10 mg/kg i.p.): < 0.001
Dunnett's test p vs vehicle, number of METH injections (rats [11]; 10 mg/kg i.p.): < 0.01
